{
  "source": "paper PMC7069944",
  "about": "“Amino acid levels determine metabolism and CYP450 function of hepatocytes and hepatoma cell lines” (Nature Communications, 2020)",
  "key": {"HLC": {"system": "HLC", "test": "Repeated-exposure DILI training compounds, resazurin conversion, HLC", "method": "(§1) To evaluate the ability to predict hepatotoxicity, we adapted the differentiation assays to a 384-well format. […] As a readout, we evaluated cell viability by resazurin conversion and correlated the results to therapeutic doses (Cmax values).\n(§2) PSCs were differentiated in a 384-well format. […] As a negative control, 41 wells were left untreated. HepG2 were seeded at 40,000 cells per well. […] Cells were fixed with 4% PFA. […] Drugs were administrated after 8 h of attachment."}, "HC3X": {"system": "HC3X", "test": "Repeated-exposure DILI training compounds, resazurin conversion, HC3X", "settings": "HC3X AAGLY D40", "method": "as §1, §2"}, "HepG2": {"system": "HepG2", "test": "Repeated-exposure DILI training compounds, resazurin conversion, HepG2", "method": "as §1, §2"}, "HC6X": {"system": "HC6X", "test": "Repeated-exposure DILI training compounds, resazurin conversion, HC6X", "method": "as §1, §2"}},
  "note": "Where “and” joins values, the source holds several entries; their conditions need not be identical. Identical values can stand only once.",
  "data": [
    {"smiles": "CCN(CC)C(=O)/C(C#N)=C/c1cc(O)c(O)c([N+](=O)[O-])c1", "note": "[entacapone]", "values": [
      {"measurement": "Resazurin conversion, repeated exposure (Supplementary Figure 7D)", "setting": "HLC; HLC AAGLY D40, 10 uM", "value": "72 and 89.5 and 61.6 and 92.2 and 93.5 and 83.6"},
      {"measurement": "Resazurin conversion, repeated exposure (Supplementary Figure 7D)", "setting": "HLC; HLC AAGLY D40, 30 uM", "value": "103.8 and 101.2 and 95.5 and 67.7 and 80.3 and 90.5"},
      {"measurement": "Resazurin conversion, repeated exposure (Supplementary Figure 7D)", "setting": "HLC; HLC AAGLY D40, 50 uM", "value": "106.7 and 75.7 and 96.1 and 56 and 97.2 and 93.3"},
      {"measurement": "Resazurin conversion, repeated exposure (Supplementary Figure 7D)", "setting": "HLC; HLC AAGLY D40, 100 uM", "value": "90.9 and 65.1 and 97.6 and 81.7 and 65.8 and 91.6"},
      {"measurement": "Resazurin conversion, repeated exposure (Supplementary Figure 7D)", "setting": "HLC; HLC AAGLY D40, 300 uM", "value": "81.3 and 79.9 and 79 and 69.8 and 111.3 and 89.9"},
      {"measurement": "Resazurin conversion, repeated exposure (Supplementary Figure 7D)", "setting": "HLC; HLC AAGLY D40, 500 uM", "value": "97.3 and 87.8 and 100.8 and 81.9 and 90.2 and 84.4"},
      {"measurement": "Resazurin conversion, repeated exposure (Supplementary Figure 7D)", "setting": "HLC; HLC AAGLY D40, 1000 uM", "value": "107 and 95.5 and 86.2 and 93 and 108.2 and 101.5"},
      {"measurement": "Resazurin conversion, repeated exposure (Supplementary Figure 7D)", "setting": "HLC; HLC LDM D40, 10 uM", "value": "80.5 and 101.6 and 104.1 and 93.5 and 79.5 and 109"},
      {"measurement": "Resazurin conversion, repeated exposure (Supplementary Figure 7D)", "setting": "HLC; HLC LDM D40, 30 uM", "value": "122.3 and 84.7 and 104.1 and 84.4 and 84 and 104"},
      {"measurement": "Resazurin conversion, repeated exposure (Supplementary Figure 7D)", "setting": "HLC; HLC LDM D40, 50 uM", "value": "80.6 and 88.8 and 112.5 and 118.1 and 65.6 and 98.1"},
      {"measurement": "Resazurin conversion, repeated exposure (Supplementary Figure 7D)", "setting": "HLC; HLC LDM D40, 100 uM", "value": "89.9 and 104.8 and 77.5 and 95.7 and 95.5 and 115.1"},
      {"measurement": "Resazurin conversion, repeated exposure (Supplementary Figure 7D)", "setting": "HLC; HLC LDM D40, 300 uM", "value": "108.5 and 82.7 and 104.1 and 95.3 and 63.3 and 100.3"},
      {"measurement": "Resazurin conversion, repeated exposure (Supplementary Figure 7D)", "setting": "HLC; HLC LDM D40, 500 uM", "value": "94.1 and 111.1 and 84.2 and 118.9 and 108.7 and 108.4"},
      {"measurement": "Resazurin conversion, repeated exposure (Supplementary Figure 7D)", "setting": "HLC; HLC LDM D40, 1000 uM", "value": "72.7 and 101.3 and 78 and 89.4 and 85.4 and 124.1"},
      {"measurement": "Resazurin conversion, repeated exposure (Supplementary Figure 7D)", "setting": "HC3X; 10 uM", "value": "105.5 and 90.3 and 90.2 and 88.2 and 71.2 and 75.6"},
      {"measurement": "Resazurin conversion, repeated exposure (Supplementary Figure 7D)", "setting": "HC3X; 30 uM", "value": "115.8 and 62.8 and 93.9 and 99.3 and 81.1 and 63.6"},
      {"measurement": "Resazurin conversion, repeated exposure (Supplementary Figure 7D)", "setting": "HC3X; 50 uM", "value": "82.1 and 69.4 and 93.5 and 81.3 and 74.4 and 55.8"},
      {"measurement": "Resazurin conversion, repeated exposure (Supplementary Figure 7D)", "setting": "HC3X; 100 uM", "value": "49 and 46.9 and 84.4 and 61.2 and 50.7 and 51.6"},
      {"measurement": "Resazurin conversion, repeated exposure (Supplementary Figure 7D)", "setting": "HC3X; 500 uM", "value": "18.2 and 17.1 and 16.8 and 16 and 16.9 and 13.4"},
      {"measurement": "Resazurin conversion, repeated exposure (Supplementary Figure 7D)", "setting": "HC3X; 1000 uM", "value": "8.7 and 10.7 and 12.7 and 12.4 and 7.5"},
      {"measurement": "Resazurin conversion, repeated exposure (Supplementary Figure 7D)", "setting": "HC3X; 2000 uM", "value": "4 and 3.7 and 3.3 and 2.8 and 3"},
      {"measurement": "Resazurin conversion, repeated exposure (Supplementary Figure 7D)", "setting": "HC3X; 4000 uM", "value": "2.3 and 2.9 and 3.3 and 2.8 and 2.6 and 2.4"},
      {"measurement": "Resazurin conversion, repeated exposure (Supplementary Figure 7D)", "setting": "HepG2; HepG2 AAGLY D30, 10 uM", "value": "102.7 and 108.3 and 96.3 and 95.5 and 95.9 and 100.8"},
      {"measurement": "Resazurin conversion, repeated exposure (Supplementary Figure 7D)", "setting": "HepG2; HepG2 AAGLY D30, 30 uM", "value": "105.3 and 123.1 and 95.9 and 95.5 and 94.4 and 98.6"},
      {"measurement": "Resazurin conversion, repeated exposure (Supplementary Figure 7D)", "setting": "HepG2; HepG2 AAGLY D30, 50 uM", "value": "152.4 and 137.5 and 121.1 and 116.5 and 124.4 and 119.5"},
      {"measurement": "Resazurin conversion, repeated exposure (Supplementary Figure 7D)", "setting": "HepG2; HepG2 AAGLY D30, 100 uM", "value": "127.9 and 149.8 and 134.1 and 127 and 120.4 and 132.2"},
      {"measurement": "Resazurin conversion, repeated exposure (Supplementary Figure 7D)", "setting": "HepG2; HepG2 AAGLY D30, 300 uM", "value": "69.6 and 78.3 and 68.3 and 72.6 and 71.7 and 76.3"},
      {"measurement": "Resazurin conversion, repeated exposure (Supplementary Figure 7D)", "setting": "HepG2; HepG2 AAGLY D30, 500 uM", "value": "44.9 and 57 and 46.8 and 54.7 and 52.8 and 66"},
      {"measurement": "Resazurin conversion, repeated exposure (Supplementary Figure 7D)", "setting": "HepG2; HepG2 AAGLY D30, 1000 uM", "value": "37.4 and 37.7 and 35.2 and 41.1 and 43.2 and 46"},
      {"measurement": "Resazurin conversion, repeated exposure (Supplementary Figure 7D)", "setting": "HepG2; HepG2 AAGLY D30, 2000 uM", "value": "19.3 and 22.6 and 21.6 and 20.1 and 20.8"},
      {"measurement": "Resazurin conversion, repeated exposure (Supplementary Figure 7D)", "setting": "HepG2; HepG2 AAGLY D30, 4000 uM", "value": "12.5 and 14.6 and 13 and 12.9 and 13.1 and 20.4"},
      {"measurement": "Resazurin conversion, repeated exposure (Supplementary Figure 7D)", "setting": "HepG2; HepG2 CTL D7, 10 uM", "value": 93.9},
      {"measurement": "Resazurin conversion, repeated exposure (Supplementary Figure 7D)", "setting": "HepG2; HepG2 CTL D7, 30 uM", "value": "102.5 and 112.8 and 108.6 and 134.8 and 127 and 107.9"},
      {"measurement": "Resazurin conversion, repeated exposure (Supplementary Figure 7D)", "setting": "HepG2; HepG2 CTL D7, 50 uM", "value": "101.5 and 107.8 and 111.6 and 126.8 and 128.3 and 109"},
      {"measurement": "Resazurin conversion, repeated exposure (Supplementary Figure 7D)", "setting": "HepG2; HepG2 CTL D7, 100 uM", "value": "95.8 and 101 and 100.7 and 120.3 and 125.1 and 104.1"},
      {"measurement": "Resazurin conversion, repeated exposure (Supplementary Figure 7D)", "setting": "HepG2; HepG2 CTL D7, 300 uM", "value": "67.5 and 62.9 and 68.7 and 80.5 and 91.5 and 70.1"},
      {"measurement": "Resazurin conversion, repeated exposure (Supplementary Figure 7D)", "setting": "HepG2; HepG2 CTL D7, 500 uM", "value": "36 and 31.8 and 34.4 and 55.7 and 53 and 36.2"},
      {"measurement": "Resazurin conversion, repeated exposure (Supplementary Figure 7D)", "setting": "HepG2; HepG2 CTL D7, 1000 uM", "value": "9.5 and 6.9 and 7.9 and 10.8 and 9.3 and 8.4"},
      {"measurement": "Resazurin conversion, repeated exposure (Supplementary Figure 7D)", "setting": "HepG2; HepG2 CTL D7, 2000 uM", "value": "3.6 and 3.2 and 3.7 and 3.8 and 3.4"},
      {"measurement": "Resazurin conversion, repeated exposure (Supplementary Figure 7D)", "setting": "HepG2; HepG2 CTL D7, 4000 uM", "value": "2.7 and 2 and 2.5 and 2.9 and 3"},
      {"measurement": "Resazurin conversion, repeated exposure (Supplementary Figure 7D)", "setting": "HC6X; HC6X AAGLY D40, 10 uM", "value": "116.9 and 68.5 and 106.9 and 88.2 and 63 and 119.9"},
      {"measurement": "Resazurin conversion, repeated exposure (Supplementary Figure 7D)", "setting": "HC6X; HC6X AAGLY D40, 30 uM", "value": "103.2 and 75.2 and 84.6 and 107.4 and 73.5 and 104.8"},
      {"measurement": "Resazurin conversion, repeated exposure (Supplementary Figure 7D)", "setting": "HC6X; HC6X AAGLY D40, 50 uM", "value": "71.4 and 61.4 and 89.5 and 66.5 and 69.6 and 76.8"},
      {"measurement": "Resazurin conversion, repeated exposure (Supplementary Figure 7D)", "setting": "HC6X; HC6X AAGLY D40, 100 uM", "value": "43.6 and 55 and 60.5 and 66.1 and 44.9 and 64.9"},
      {"measurement": "Resazurin conversion, repeated exposure (Supplementary Figure 7D)", "setting": "HC6X; HC6X AAGLY D40, 300 uM", "value": "37.1 and 36.3 and 44.1 and 42.3 and 33.5 and 37.5"},
      {"measurement": "Resazurin conversion, repeated exposure (Supplementary Figure 7D)", "setting": "HC6X; HC6X AAGLY D40, 500 uM", "value": "24.4 and 21.6 and 32.3 and 32.9 and 27.4 and 25.1"},
      {"measurement": "Resazurin conversion, repeated exposure (Supplementary Figure 7D)", "setting": "HC6X; HC6X AAGLY D40, 1000 uM", "value": "25.5 and 25.3 and 37.2 and 22.8 and 23.6 and 21"},
      {"measurement": "Resazurin conversion, repeated exposure (Supplementary Figure 7D)", "setting": "HC6X; HC6X AAGLY D40, 2000 uM", "value": "12 and 11.8 and 15.1 and 12.5 and 11.4 and 12.9"},
      {"measurement": "Resazurin conversion, repeated exposure (Supplementary Figure 7D)", "setting": "HC6X; HC6X AAGLY D40 Remove dox, 10 uM", "value": "62.8 and 75.4 and 93.9 and 104.7 and 88.6 and 79.3"},
      {"measurement": "Resazurin conversion, repeated exposure (Supplementary Figure 7D)", "setting": "HC6X; HC6X AAGLY D40 Remove dox, 30 uM", "value": "86.2 and 86.6 and 84.6 and 85 and 82.3"},
      {"measurement": "Resazurin conversion, repeated exposure (Supplementary Figure 7D)", "setting": "HC6X; HC6X AAGLY D40 Remove dox, 100 uM", "value": "87.4 and 81.5 and 70.5 and 95.4 and 102 and 63.6"},
      {"measurement": "Resazurin conversion, repeated exposure (Supplementary Figure 7D)", "setting": "HC6X; HC6X AAGLY D40 Remove dox, 300 uM", "value": "89.2 and 80.7 and 67.2 and 48.2 and 75.7 and 47.5"},
      {"measurement": "Resazurin conversion, repeated exposure (Supplementary Figure 7D)", "setting": "HC6X; HC6X AAGLY D40 Remove dox, 2000 uM", "value": "43.7 and 44 and 38.6 and 66.6 and 63.4 and 64.5"}
    ]}
  ]
}
